Values quoted from earlier work in patent US6472398B1, “Spiropiperidine derivatives as melanocortin receptor agonists” (Merck & Co., Inc., priority 2000, dated 2002).

Key:
[1] = test system: patients with erectile dysfunction; conditions: for duration of effect / onset of action: after an oral dose; for share of patients with adequate response: oral, men with erectile dysfunction
rodents = conditions: ICV; NPY, ob/ob, agouti, fasted feeding models
[2] = test system: males with psychogenic erectile dysfunction

Compound	duration of effect [1]	onset of action [1] [min]	share of patients with adequate response [1]	effect on food intake (rodents)	duration of action ([2]; in vivo)	time to onset of erection ([2]; in vivo) [min]	absorption into the systemic circulation ([2]; in vivo, po)	response rate ([2]; injected intramuscularly or subcutaneously) [%]
Cc1ccc(N(CC2=NCCN2)c2cccc(O)c2)cc1 [phentolamine]	2 h	5 to 30	35-40%	–	–	–	–	–
CCCc1nn(C)c2c(=O)[nH]c(-c3cc(S(=O)(=O)N4CCN(C)CC4)ccc3OCC)nc12 [sildenafil]	about 4 hours	30 to 60	about 70%	–	–	–	–	–
SHU-9119	–	–	–	reverses this effect and can induce hyperphagia	–	–	–	–
Ac-Nle-c[Asp-His-DPhe-Arg-Trp-Lys]-NH2 [MT-II]	–	–	–	reduces food intake	approximately 2.5 hours	10 to 20	not absorbed into the systemic circulation	75
